Laboratory results from US10632125B2, “MTH1 inhibitors for treatment of inflammatory and autoimmune conditions” (THOMAS HELLEDAYS STIFTELSE FÖR MEDICINSK FORSKNING, priority 2014, dated 2020).
pIC50: −log10 of the molar value.

Molecular target: MTH1 (Homo sapiens, UniProt P36639)
Assay: MTH1 enzymatic assay (malachite green, coupled to pyrophosphatase)
Assay type: biochemical
Conditions: dGTP 100 μM, MTH1 6 nM; 96- or 384-well format; read-out: IC50

pIC50	SMILES
> 6.70	COc1cc(CNc2cc(-c3cccc(C)c3C)nc(N)n2)ccn1 [Example 253, 6-(2,3-dimethylphenyl)-4-N-[(2-methoxypyridin-4-yl)methyl]pyrimidine-2,4-diamine]
> 6.70	CNc1cc(-c2cccc(C#N)c2C)nc(N)n1 [Example 258, 3-[2-amino-6-(methylamino)pyrimidin-4-yl]-2-methylbenzonitrile]
> 6.70	CNc1cc(-c2cccc3c2OCC3)nc(N)n1 [Example 261, 6-(2,3-dihydro-1-benzofuran-7-yl)-4-N-methylpyrimidine-2,4-diamine]
> 6.70	CNc1cc(-c2cc(S(=O)(=O)N3CCOCC3)ccc2C)nc(N)n1 [Example 262, 4-N-methyl-6-[2-methyl-5-(morpholine-4-sulfonyl)phenyl]pyrimidine-2,4-diamine]
> 6.70	Nc1nc(NCCc2ccc(Cl)cc2)cc(-c2cccc(Cl)c2Cl)n1 [Example 263, 4-N-[2-(4-chlorophenyl)ethyl]-6-(2,3-dichlorophenyl)pyrimidine-2,4-diamine]
> 6.70	Cc1cccc(-c2cc(NCCc3cccnc3)nc(N)n2)c1C [Example 268, 6-(2,3-dimethylphenyl)-4-N-[2-(pyridin-3-yl)ethyl]pyrimidine-2,4-diamine]
> 6.70	Cc1cccc(-c2cc(NCCNC(=O)OC(C)(C)C)nc(N)n2)c1C [Example 271, tert-butyl N-(2-{[2-amino-6-(2,3-dimethylphenyl)pyrimidin-4-yl]amino}ethyl)-carbamate]
> 6.70	Cc1cccc(-c2cc(NCCN(C)C(=O)OC(C)(C)C)nc(N)n2)c1C [Example 274, tert-butyl N-(2-{[2-amino-6-(2,3-dimethylphenyl)pyrimidin-4-yl]amino}ethyl)-N-methylcarbamate]
> 6.70	Cc1cccc(-c2cc(NCc3ccc(S(C)(=O)=O)cc3)nc(N)n2)c1C [Example 279, 6-(2,3-dimethylphenyl)-4-N-[(4-methanesulfonylphenyl)methyl]pyrimidine-2,4-diamine]
> 6.70	Cc1cccc(-c2cc(NCc3ccc(N4CCN(C)CC4)cc3)nc(N)n2)c1C [Example 280, 6-(2,3-dimethylphenyl)-4-N-{[4-(4-methylpiperazin-1-yl)phenyl]methyl}pyrimidine-2,4-diamine]
> 6.70	Cc1cccc(-c2cc(NCC3CCN(C(=O)OC(C)(C)C)CC3)nc(N)n2)c1C [Example 283, tert-butyl 4-({[2-amino-6-(2,3-dimethylphenyl)pyrimidin-4-yl]amino}methyl)-piperidine-1-carboxylate]
> 6.70	CC(=O)NCCCCNc1cc(-c2cccc(Cl)c2Cl)nc(N)n1 [Example 303, N-(4-{[2-Amino-6-(2,3-dichlorophenyl)pyrimidin-4-yl]amino}butyl)acetamide]
> 6.70	Nc1nc(NCc2ccc(-c3csnn3)cc2)cc(-c2cccc(Cl)c2Cl)n1 [Example 305, 6-(2,3-Dichlorophenyl)-4-N-{[4-(1,2,3-thiadiazol-4-yl)phenyl]methyl}pyrimidine-2,4-diamine]
> 6.70	C=CC(=O)Nc1cccc(-c2cc(NC)nc(N)n2)c1 [Example 309, N-{3-[2-Amino-6-(methylamino)pyrimidin-4-yl]phenyl}prop-2-enamide]
> 6.70	CNc1cc(-c2cccc(NC(=O)/C=C/c3ccccc3)c2)nc(N)n1 [Example 310, (2E)-N-{3-[2-Amino-6-(methylamino)pyrimidin-4-yl]phenyl}-3-phenylprop-2-enamide]
> 6.70	C=CC(=O)Nc1cccc(-c2cc(NC)nc(N)n2)c1C [Example 311, N-{3-[2-Amino-6-(methylamino)pyrimidin-4-yl]-2-methylphenyl}prop-2-enamide]
> 6.70	C#CC(=O)Nc1cccc(-c2cc(NC)nc(N)n2)c1 [Example 314, N-{3-[2-Amino-6-(methylamino)pyrimidin-4-yl]phenyl}prop-2-ynamide]
> 6.70	CNc1cc(-c2cccc(NC(=O)c3cc(Cl)ccc3O)c2)nc(N)n1 [Example 321, N-{3-[2-Amino-6-(methylamino)pyrimidin-4-yl]phenyl}-5-chloro-2-hydroxybenzamide]
> 6.70	CNc1cc(-c2cccc(NC(=O)CCC(=O)N3CCCC3)c2)nc(N)n1 [Example 325, N-{3-[2-Amino-6-(methylamino)pyrimidin-4-yl]phenyl}-4-oxo-4-(pyrrolidin-1-yl)butanamide]
> 6.70	CNc1cc(-c2cccc(CN)c2)nc(N)n1 [Example 328, 6-[3-(Aminomethyl)phenyl]-4-N-methylpyrimidine-2,4-diamine]
> 6.70	Cc1nc(CCNc2cc(-c3cccc(C)c3C)nc(N)n2)n[nH]1 [Example 332, 6-(2,3-Dimethylphenyl)-4-N-[2-(5-methyl-1H-1,2,4-triazol-3-yl)ethyl]pyrimidine-2,4-diamine]

pIC50	SMILES
> 6.70	Cc1cccc(-c2cc(NCCn3ccccc3=O)nc(N)n2)c1C [Example 337, 1-(2-{[2-Amino-6-(2,3-dimethylphenyl)pyrimidin-4-yl]amino}ethyl)-1,2-dihydropyridin-2-one]
> 6.70	Cc1cccc(-c2cc(NCc3ccc[nH]c3=O)nc(N)n2)c1C [Example 338, 3-({[2-Amino-6-(2,3-dimethylphenyl)pyrimidin-4-yl]amino}methyl)-1,2-dihydropyridin-2-one]
> 6.70	Cc1cccc(-c2cc(NCCc3cccc(Cl)c3)nc(N)n2)c1C [Example 341, 4-N-[2-(3-Chlorophenyl)ethyl]-6-(2,3-dimethylphenyl)pyrimidine-2,4-diamine]
> 6.70	Cc1cccc(-c2cc(NCCCn3ccnc3)nc(N)n2)c1C [Example 342, 6-(2,3-Dimethylphenyl)-4-N-[3-(1H-imidazol-1-yl)propyl]pyrimidine-2,4-diamine]
> 6.70	Cc1cccc(-c2cc(NCCc3ccc(F)cc3)nc(N)n2)c1C [Example 344, 6-(2,3-Dimethylphenyl)-4-N-[2-(4-fluorophenyl)ethyl]pyrimidine-2,4-diamine]
> 6.70	Cc1cccc(-c2cc(NCCc3scnc3C)nc(N)n2)c1C [Example 352, 6-(2,3-Dimethylphenyl)-4-N-[2-(4-methyl-1,3-thiazol-5-yl)ethyl]pyrimidine-2,4-diamine]
> 6.70	Cc1cccc(-c2cc(NCC3CCCN(c4ccccn4)C3)nc(N)n2)c1C (stereo not drawn) [Example 355, 6-(2,3-Dimethylphenyl)-4-N-{[1-(pyridin-2-yl)piperidin-3-yl]methyl}pyrimidine-2,4-diamine]
> 6.70	Cc1cccc(-c2cc(NCc3cnn(-c4ccccc4)n3)nc(N)n2)c1C [Example 356, 6-(2,3-Dimethylphenyl)-4-N-[(2-phenyl-2H-1,2,3-triazol-4-yl)methyl]pyrimidine-2,4-diamine]
> 6.70	Cc1cccc(-c2cc(NCCCNS(=O)(=O)c3ccc(Cl)cc3)nc(N)n2)c1C [Example 357, N-(3-{[2-Amino-6-(2,3-dimethylphenyl)pyrimidin-4-yl]amino}propyl)-4-chlorobenzene-1-sulfonamide]
> 6.70	Cc1cccc(-c2cc(NCCCNC(=O)Nc3ccc(F)c(F)c3)nc(N)n2)c1C [Example 362, 3-(3-{[2-Amino-6-(2,3-dimethylphenyl)pyrimidin-4-yl]amino}propyl)-1-(3,4-difluorophenyl)urea]
> 6.70	Cc1cc2cc(CNc3cc(-c4cccc(C)c4C)nc(N)n3)ccc2[nH]1 [Example 364, 6-(2,3-Dimethylphenyl)-4-N-[(2-methyl-1H-indol-5-yl)methyl]pyrimidine-2,4-diamine]
> 6.70	Cc1cccc(-c2cc(NCCCCNC(=O)OC(C)(C)C)nc(N)n2)c1C [Example 370, tert-Butyl N-(4-{[2-amino-6-(2,3-dimethylphenyl)pyrimidin-4-yl]amino}butyl)-carbamate]
> 6.70	Cc1cccc(-c2cc(NCCCCCNC(=O)OC(C)(C)C)nc(N)n2)c1C [Example 371, tert-Butyl N-(5-{[2-amino-6-(2,3-dimethylphenyl)pyrimidin-4-yl]amino}pentyl)-carbamate]
> 6.70	Cc1cccc(-c2cc(NCCCNS(=O)(=O)c3ccc(S(C)(=O)=O)cc3)nc(N)n2)c1C [Example 375, N-(3-{[2-Amino-6-(2,3-dimethylphenyl)pyrimidin-4-yl]amino}propyl)-4-methanesulfonylbenzene-1-sulfonamide]
> 6.70	CC(=O)Nc1ccc(S(=O)(=O)NCCCNc2cc(-c3cccc(C)c3C)nc(N)n2)cc1 [Example 382, N-{4-[(3-{[2-Amino-6-(2,3-dimethylphenyl)pyrimidin-4-yl]amino}propyl)sulfamoyl]-phenyl}acetamide]
> 6.70	COc1ccc(S(=O)(=O)NCCNc2cc(-c3cccc(C)c3C)nc(N)n2)cc1 [Example 385, N-(2-{[2-Amino-6-(2,3-dimethylphenyl)pyrimidin-4-yl]amino}ethyl)-4-methoxybenzene-1-sulfonamide]
> 6.70	Cc1cccc(-c2cc(NCCCNS(=O)(=O)c3cc(Cl)c(Cl)s3)nc(N)n2)c1C [Example 388, N-(3-{[2-Amino-6-(2,3-dimethylphenyl)pyrimidin-4-yl]amino}propyl)-4,5-dichlorothiophene-2-sulfonamide]
> 6.70	Cc1cccc(-c2cc(NCCNc3nc4ccccc4o3)nc(N)n2)c1C [Example 393, 4-N-{2-[(1,3-Benzoxazol-2-yl)amino]ethyl}-6-(2,3-dimethylphenyl)pyrimidine-2,4-diamine]
> 6.70	Cc1cccc(-c2cc(NC(C)CCc3ccccc3)nc(N)n2)c1C (stereo not drawn) [Example 394, 6-(2,3-Dimethylphenyl)-4-N-(4-phenylbutan-2-yl)pyrimidine-2,4-diamine]
> 6.70	Cc1cccc(-c2cc(NCCNc3nc(Br)ns3)nc(N)n2)c1C [Example 398, 4-N-{2-[(3-Bromo-1,2,4-thiadiazol-5-yl)amino]ethyl}-6-(2,3-dimethylphenyl)pyrimidine-2,4-diamine]
> 6.70	Cc1cccc(-c2cc(NCCc3nnc(-c4ccc(F)cc4)o3)nc(N)n2)c1C [Example 400, 6-(2,3-Dimethylphenyl)-4-N-{2-[5-(4-fluorophenyl)-1,3,4-oxadiazol-2-yl]ethyl}pyrimidine-2,4-diamine]
